Experimental data taken from PubChem BioAssay AID1963967 (Molecular Pharmacology Branch, DTP, NCI, 2024).
pIC50: −log10 of the molar value.

System: 855422-203-R-J1-PDC spheroids with HUVEC/MSC, viability
Test: Anticancer human tumor 855422-203-R-J1-PDC patient-derived bladder carcinoma cell line growth inhibition [PI3K]
Conditions: for pIC50: curve of first compound; for viability, T/C: stronger effect = lower value
Method in brief: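 Viability of mixed-cell spheroids was determined after exposure to pairwise combinations, one partner being inavolisib, alpelisib, duvelisib or copanlisib. Highest tested concentration matched clinical Cmax where known and 10 microM where not, descending in half-log steps.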

[1] = second compound 0.0316 µM, first compound 0.0316 µM
[2] = second compound 0.0316 µM, first compound 0.1 µM
[3] = second compound 0.0316 µM, first compound 0.316 µM
[4] = second compound 0.0316 µM, first compound 1 µM
[5] = second compound 0.0316 µM, first compound 3.16 µM
[6] = second compound 0.0316 µM, first compound 10 µM
[7] = second compound 0.1 µM, first compound 0.0316 µM
[8] = second compound 0.1 µM, first compound 0.1 µM
[9] = second compound 0.1 µM, first compound 0.316 µM
[10] = second compound 0.1 µM, first compound 1 µM
[11] = second compound 0.1 µM, first compound 3.16 µM
[12] = second compound 0.1 µM, first compound 10 µM
[13] = second compound 0.316 µM, first compound 0.0316 µM
[14] = second compound 0.316 µM, first compound 0.1 µM
[15] = second compound 0.316 µM, first compound 0.316 µM
[16] = second compound 0.316 µM, first compound 1 µM
[17] = second compound 0.316 µM, first compound 3.16 µM
[18] = second compound 0.316 µM, first compound 10 µM
[19] = second compound 1 µM, first compound 0.0316 µM
[20] = second compound 1 µM, first compound 0.1 µM
[21] = second compound 1 µM, first compound 0.316 µM
[22] = second compound 1 µM, first compound 1 µM
[23] = second compound 1 µM, first compound 3.16 µM
[24] = second compound 1 µM, first compound 10 µM
[25] = second compound 3.16 µM, first compound 0.0316 µM
[26] = second compound 3.16 µM, first compound 0.1 µM
[27] = second compound 3.16 µM, first compound 0.316 µM
[28] = second compound 3.16 µM, first compound 1 µM
[29] = second compound 3.16 µM, first compound 3.16 µM
[30] = second compound 3.16 µM, first compound 10 µM
[31] = second compound 10 µM, first compound 0.0316 µM
[32] = second compound 10 µM, first compound 0.1 µM
[33] = second compound 10 µM, first compound 0.316 µM
[34] = second compound 10 µM, first compound 1 µM
[35] = second compound 10 µM, first compound 3.16 µM
[36] = second compound 10 µM, first compound 10 µM
[37] = second compound 0.0316 µM, first compound 0.00316 µM
[38] = second compound 0.0316 µM, first compound 0.01 µM
[39] = second compound 0.1 µM, first compound 0.00316 µM
[40] = second compound 0.1 µM, first compound 0.01 µM
[41] = second compound 0.316 µM, first compound 0.00316 µM
[42] = second compound 0.316 µM, first compound 0.01 µM
[43] = second compound 1 µM, first compound 0.00316 µM
[44] = second compound 1 µM, first compound 0.01 µM
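Note: agents incubated with spheroids for one week before read-out.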
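Throughout, for viability, T/C: 100% = DMSO vehicle-treated control wells.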

SMILES: C[C@@H](NC(=O)c1ncnc(N)c1Cl)c1ncc(C(=O)Nc2cc(C(F)(F)F)c(Cl)cn2)s1 + CC(Nc1ncnc2nc[nH]c12)c1cc2cccc(Cl)c2c(=O)n1-c1ccccc1
- pIC50 (second compound 0.0316 µM): < 5.00
- pIC50 (second compound 0.1 µM): < 5.00
- pIC50 (second compound 0.316 µM): < 5.00
- pIC50 (second compound 1 µM): < 5.00
- pIC50 (second compound 3.16 µM): < 5.00
- pIC50 (second compound 10 µM): < 5.00
- viability, T/C [1]: 120%
- viability, T/C [2]: 109%
- viability, T/C [3]: 109%
- viability, T/C [4]: 116%
- viability, T/C [5]: 131%
- viability, T/C [6]: 117%
- viability, T/C [7]: 112%
- viability, T/C [8]: 100%
- viability, T/C [9]: 111%
- viability, T/C [10]: 114%
- viability, T/C [11]: 116%
- viability, T/C [12]: 133%
- viability, T/C [13]: 100%
- viability, T/C [14]: 115%
- viability, T/C [15]: 105%
- viability, T/C [16]: 103%
- viability, T/C [17]: 136%
- viability, T/C [18]: 109%
- viability, T/C [19]: 85.2%
- viability, T/C [20]: 102%
- viability, T/C [21]: 101%
- viability, T/C [22]: 106%
- viability, T/C [23]: 120%
- viability, T/C [24]: 107%
- viability, T/C [25]: 94.8%
- viability, T/C [26]: 108%
- viability, T/C [27]: 94.3%
- viability, T/C [28]: 93.3%
- viability, T/C [29]: 106%
- viability, T/C [30]: 82.7%
- viability, T/C [31]: 82.7%
- viability, T/C [32]: 75.7%
- viability, T/C [33]: 93%
- viability, T/C [34]: 85.6%
- viability, T/C [35]: 69.6%
- viability, T/C [36]: 54.4%

SMILES: Cn1ncnc1[C@H]1c2n[nH]c(=O)c3cc(F)cc(c23)N[C@@H]1c1ccc(F)cc1 + CC(Nc1ncnc2nc[nH]c12)c1cc2cccc(Cl)c2c(=O)n1-c1ccccc1
- pIC50 (second compound 0.0316 µM): < 7.00
- pIC50 (second compound 0.1 µM): < 7.00
- pIC50 (second compound 0.316 µM): < 7.00
- pIC50 (second compound 1 µM): < 7.00
- pIC50 (second compound 3.16 µM): < 7.00
- pIC50 (second compound 10 µM): < 7.00
- viability, T/C (second compound 0.0316 µM, first compound 0.000316 µM): 107%
- viability, T/C (second compound 0.0316 µM, first compound 0.001 µM): 98%
- viability, T/C [37]: 106%
- viability, T/C [38]: 97.8%
- viability, T/C [1]: 109%
- viability, T/C [2]: 100%
- viability, T/C (second compound 0.1 µM, first compound 0.000316 µM): 121%
- viability, T/C (second compound 0.1 µM, first compound 0.001 µM): 104%
- viability, T/C [39]: 113%
- viability, T/C [40]: 101%
- viability, T/C [7]: 111%
- viability, T/C [8]: 104%
- viability, T/C (second compound 0.316 µM, first compound 0.000316 µM): 106%
- viability, T/C (second compound 0.316 µM, first compound 0.001 µM): 107%
- viability, T/C [41]: 121%
- viability, T/C [42]: 102%
- viability, T/C [13]: 110%
- viability, T/C [14]: 107%
- viability, T/C (second compound 1 µM, first compound 0.000316 µM): 106%
- viability, T/C (second compound 1 µM, first compound 0.001 µM): 107%
- viability, T/C [43]: 110%
- viability, T/C [44]: 104%
- viability, T/C [19]: 104%
- viability, T/C [20]: 104%
- viability, T/C (second compound 3.16 µM, first compound 0.000316 µM): 96.6%
- viability, T/C (second compound 3.16 µM, first compound 0.001 µM): 92%
- viability, T/C (second compound 3.16 µM, first compound 0.00316 µM): 97.9%
- viability, T/C (second compound 3.16 µM, first compound 0.01 µM): 105%
- viability, T/C [25]: 105%
- viability, T/C [26]: 104%
- viability, T/C (second compound 10 µM, first compound 0.000316 µM): 88.3%
- viability, T/C (second compound 10 µM, first compound 0.001 µM): 85%
- viability, T/C (second compound 10 µM, first compound 0.00316 µM): 78.4%
- viability, T/C (second compound 10 µM, first compound 0.01 µM): 87%
- viability, T/C [31]: 89.5%
- viability, T/C [32]: 82.3%

SMILES: CNC(=O)c1ccc(N2C(=S)N(c3ccc(C#N)c(C(F)(F)F)c3)C(=O)C2(C)C)cc1F + CC(Nc1ncnc2nc[nH]c12)c1cc2cccc(Cl)c2c(=O)n1-c1ccccc1
- pIC50 (second compound 0.0316 µM): < 5.00
- pIC50 (second compound 0.1 µM): < 5.00
- pIC50 (second compound 0.316 µM): < 5.00
- pIC50 (second compound 1 µM): < 5.00
- pIC50 (second compound 3.16 µM): < 5.00
- pIC50 (second compound 10 µM): < 5.00
- viability, T/C [1]: 111%
- viability, T/C [2]: 93%
- viability, T/C [3]: 109%
- viability, T/C [4]: 89.1%
- viability, T/C [5]: 86.2%
- viability, T/C [6]: 75.4%
- viability, T/C [7]: 117%
- viability, T/C [8]: 91.1%
- viability, T/C [9]: 104%
- viability, T/C [10]: 86.6%
- viability, T/C [11]: 74.3%
- viability, T/C [12]: 68.5%
- viability, T/C [13]: 96.9%
- viability, T/C [14]: 105%
- viability, T/C [15]: 102%
- viability, T/C [16]: 80.2%
- viability, T/C [17]: 76.5%
- viability, T/C [18]: 63.1%
- viability, T/C [19]: 97.4%
- viability, T/C [20]: 102%
- viability, T/C [21]: 106%
- viability, T/C [22]: 91.4%
- viability, T/C [23]: 73%
- viability, T/C [24]: 69.1%
- viability, T/C [25]: 100%
- viability, T/C [26]: 100%
- viability, T/C [27]: 100%
- viability, T/C [28]: 84.3%
- viability, T/C [29]: 76%
- viability, T/C [30]: 77.7%
- viability, T/C [31]: 89%
- viability, T/C [32]: 80.9%
- viability, T/C [33]: 95.8%
- viability, T/C [34]: 81%
- viability, T/C [35]: 77.4%
- viability, T/C [36]: 68.4%

SMILES: CCN1CCN(Cc2ccc(Nc3ncc(F)c(-c4cc(F)c5nc(C)n(C(C)C)c5c4)n3)nc2)CC1 + CC(Nc1ccc2c(c1)OCCn1cc(N3C(=O)OCC3C(F)F)nc1-2)C(N)=O
- pIC50 (second compound 0.00316 µM): < 6.00
- pIC50 (second compound 0.01 µM): 6.10
- pIC50 (second compound 0.0316 µM): 6.56
- pIC50 (second compound 0.1 µM): 7.15
- pIC50 (second compound 0.316 µM): 8.37
- pIC50 (second compound 1 µM): > 8.50
- viability, T/C (second compound 0.00316 µM, first compound 0.00316 µM): 111%
- viability, T/C (second compound 0.00316 µM, first compound 0.01 µM): 74.3%
- viability, T/C (second compound 0.00316 µM, first compound 0.0316 µM): 103%
- viability, T/C (second compound 0.00316 µM, first compound 0.1 µM): 74.1%
- viability, T/C (second compound 0.00316 µM, first compound 0.316 µM): 66.2%
- viability, T/C (second compound 0.00316 µM, first compound 1 µM): 56.5%
- viability, T/C (second compound 0.01 µM, first compound 0.00316 µM): 102%
- viability, T/C (second compound 0.01 µM, first compound 0.01 µM): 80%
- viability, T/C (second compound 0.01 µM, first compound 0.0316 µM): 89.7%
- viability, T/C (second compound 0.01 µM, first compound 0.1 µM): 76%
- viability, T/C (second compound 0.01 µM, first compound 0.316 µM): 56.7%
- viability, T/C (second compound 0.01 µM, first compound 1 µM): 48.3%
- viability, T/C [37]: 69.1%
- viability, T/C [38]: 78.3%
- viability, T/C [1]: 78.3%
- viability, T/C [2]: 61.7%
- viability, T/C [3]: 49.7%
- viability, T/C [4]: 35.4%
- viability, T/C [39]: 66%
- viability, T/C [40]: 66.2%
- viability, T/C [7]: 59.1%
- viability, T/C [8]: 46.3%
- viability, T/C [9]: 28.3%
- viability, T/C [10]: 21%
- viability, T/C [41]: 46.5%
- viability, T/C [42]: 52%
- viability, T/C [13]: 43.1%
- viability, T/C [14]: 24.4%
- viability, T/C [15]: 16.4%
- viability, T/C [16]: 16.1%
- viability, T/C [43]: 33%
- viability, T/C [44]: 40.3%
- viability, T/C [19]: 21.9%
- viability, T/C [20]: 14.2%
- viability, T/C [21]: 12.3%
- viability, T/C [22]: 13.1%
